Assay results as given in US5985910A, “3- [4- (2- Phenyl-Indole-1-ylmethyl) Phenyl]- Acrylamides as estrogenic agents” (priority 1997, dated 1999).

How the values were obtained:
estrogen receptor [1] = molecular target: T1, estrogen receptor (Homo sapiens, UniProt P03372); test: In Vitro Estrogen Receptor Binding Assay ([3H]-17β-estradiol competition, cytosol of CHO cells overexpressing the estrogen receptor); design: made in house; host or cells: CHO cells overexpressing the receptor; 100,000 g cytosol
T1 sequence (P03372 1-595): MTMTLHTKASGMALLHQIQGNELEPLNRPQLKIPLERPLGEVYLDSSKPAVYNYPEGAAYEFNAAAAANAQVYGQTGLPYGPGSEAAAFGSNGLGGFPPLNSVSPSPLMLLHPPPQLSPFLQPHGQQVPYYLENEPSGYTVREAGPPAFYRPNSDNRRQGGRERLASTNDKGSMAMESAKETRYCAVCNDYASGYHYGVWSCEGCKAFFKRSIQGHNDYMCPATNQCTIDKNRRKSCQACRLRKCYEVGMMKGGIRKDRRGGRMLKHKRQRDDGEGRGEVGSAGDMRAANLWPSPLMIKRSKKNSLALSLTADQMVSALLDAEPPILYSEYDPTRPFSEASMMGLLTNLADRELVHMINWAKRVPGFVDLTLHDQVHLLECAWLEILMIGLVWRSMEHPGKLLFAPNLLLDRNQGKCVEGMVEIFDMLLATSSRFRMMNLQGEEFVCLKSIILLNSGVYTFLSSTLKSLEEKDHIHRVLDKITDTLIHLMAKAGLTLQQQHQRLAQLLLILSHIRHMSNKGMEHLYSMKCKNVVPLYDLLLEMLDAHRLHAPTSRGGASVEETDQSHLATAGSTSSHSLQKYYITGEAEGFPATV
Description: In Vitro Estrogen Receptor Bonding Assay
CHO cells overexpressing the estrogen receptor were grown in 150 mm^2 dishes in DMEM+10% dextran coated charcoal, stripped fetal bovine serum. The plates were washed twice with PBS and once with 10 mM Tris-HCl, pH 7.4, 1 mM EDTA. Cells were harvested by scraping the surface and then the cell suspension was placed on ice. Cells were disrupted with a hand-held motorized tissue grinder using two, 10-second bursts. […] The cytosol was then frozen and stored at -80° C. Protein concentration of the cytosol was estimated using the BCA assay with reference standard protein.
100 uG/100 uL of the receptor preparation was aliquoted per well. […] The plate was incubated at room temperature for 2.5 h. […] 200 uL of the supernatant solution was then removed for scintillation counting. Samples were counted to 2% or 10 minutes, whichever occurs first. […] Also, wells containing radioactivity but no cytosol were processed with charcoal to estimate unremovable DPM of [^3 H] […].
Counts per minute (CPM) of radioactivity were automatically converted to disintegrated per minute (DPM) by the Beckman LS 7500 Scintillation Counter using a set of quenched standards to generate a H# for each sample.
((DPM sample-DPM not removed by charcoal)/(DPM estradiol-DPM not removed by charcoal))×100%=% of estradiol binding
For the generation of IC50 curves, % binding is plotted vs compound. […] For a description of these methods, see Hulme, E. C., ed. […] Receptor-Ligand Interactions: A Practical Approach. IRL Press, New York (see especially chapter 8).

Ishikawa cells = test: Ishikawa Cell Alkaline Phosphatase Assay; type: cell-based, human; conditions: for % Activation (Compound ± 1 nM 17β-estradiol) (alkaline phosphatase): 10^-6 M compound + 1 nM 17β-estradiol, 48 h (antiestrogen test); for % Activation (alkaline phosphatase): compound alone, 48 h, percent of response related to 1 nM 17β-estradiol
Description: Ishikawa Cell Alkaline Phosphatase Assay
(§1) Cell Maintenance and Treatment
Ishikawa cells were maintained in DMEM/F12 (50%:50%) containing phenol red+10% fetal bovine serum and the medium was supplemented with 2 mM Glutamax, 1% Pen/Strap and 1 mM sodium pyruvate. Five days prior to the beginning of each experiment (treatment of cells) the medium was changed to phenol red-free DMEM/F12+10% dextran coated charcoal stripped serum. On the day before treatment, cells were harvested using 0.5% trypsin/EDTA and plated at a density of 5×10^4 cells/well in 96-well tissue culture plates. […] Cells were treated for 48 h prior to assay. […] Sample population for at each dose was n=8.
Alkaline Phosphatase Assay
At the end of 48 h the media is aspirated and cells are washed three times with phosphate buffered saline (PBS). 50 μL of lysis buffer (0.1 M Tris-HCl, pH 9.8, 0.2% Triton X-100) is added to each well. Plates are placed at -80° C. for a minimum of 15 minutes. Plates are thawed at 37° C. followed by the addition of 150 μL of 0.1 M Tris-HCl, pH 9.8, containing 4 mM para-nitrophenylphosphate (pNPP) to each well (final concentration, 3 mM pNPP).
Absorbance and slope calculations were made using the KineticCalc Application program (Bio-Tek Instruments, Inc., Winooski, Vt.). Results are expressed as the mean +/-S.D. of the rate of enzyme reaction (slope) averaged over the linear portion of the kinetic reaction curve (optical density readings every 5 minutes for 30 minutes absorbance reading).
Various compounds were assayed for estrogenic activity by the alkaline phosphatase method and corresponding ED50 values (95% C.I.) were calculated. The four listed in the following were used as reference standards:
A description of such methods is provided by Holinka, C. F., Hata, H., Kuramoto, H. and Gurpide, E. (1986) Effects of steroid hormones and antisteroids on alkaline phosphatase activity in human endometrial cancer cells (Ishikawa Line). Cancer Research, 46:2771-2774, and by Littlefield, B. A., Gurpide, E., Markiewicz, L., McKinley, B. and by Hochberg, R. B. (1990) A simple and sensitive microtiter plate estrogen bioassay based on stimulation alkaline phosphatase in Ishikawa cells; Estrogen action of D5 adrenal steroids. Endocrinology, 6:2757-2762.

estrogen receptor [2] = molecular target: T1, estrogen receptor; test: 2X VIT ERE Transfection (luciferase) Assay in CHO cells; type: cell-based; design: expressed in transfected cells; host or cells: Chinese Hamster Ovary (CHO) cells, stably transfected
Description: 2X VIT ERE Transfection Assay
as §1
Chinese Hamster Ovary cells (CHO) which had been stably transfected with the human estrogen receptor were maintained in DMEM+10% fetal bovine serum (FBS). 48 h prior to treatment the growth medium was replaced with DMEM lacking phenol red +10% dextran coated charcoal stripped FBS (treatment medium). Cells were plated at a density of 5000 cells/well in 96-well plates containing 200 μL of medium/well.
Calcium Phoshate Transfection
Reporter DNA (Promega plasmid pGL2 containing two tandem copies of the vitellogenin ERE in front of the minimal thymidine kinase promoter driving the luciferase gene) was combined with the B-galactosidase expression plasmid pCH110 (Pharmacia) and carrier DNA (pTZ18U) in the following ratio:
20 uL of this mixture was added to each well of cells and remained on the cells for 16 h. […] Each treatment condition was performed on 8 wells (n=8) which were incubated for 24 h prior to the luciferase assay.
After removing the PBS, 25 uL of Promega lysis buffer was added to each well and allowed to stand at room temperature for 15 min, followed by 15 min at -80° C. and 15 min at 37° C. 20 uL of lysate was transferred to an opaque 96 well plate for luciferase activity evaluation and the remaining lysate (5 uL) was used for the B-galactosidase activity evaluation (normalize transfection). The luciferan substrate (Promega) was added in 100 uL aliquots to each well automatically by the luminometer and the light produced (relative light units) was read 10 seconds after addition.
To the remaining 5 uL of lysate 45 uL of PBS was added. Then 50 uL of Promega B-galactosidase 2× assay buffer was added, mixed well and incubated at 37° C. for 1 hour. A plate containing a standard curve (0.1 to 1.5 milliunits in triplicate) was set up for each experimental run. The plates were analyzed on a Molecular Devices spectrophotometric plate reader at 410 nm. The optical densities for the unknown were converted to milliunits of activity by mathematical extrapolation from the standard curve.
The luciferase data was generated as relative light units (RLUs) accumulated during a 10 second measurement and automatically transferred to a JMP (SAS Inc) file where background RLUs were subtracted. The B-galactosidase values were automatically imported into the file and these values were divided into the RLUs to normalize the data. The mean and standard deviations were determined from a n=8 for each treatment. […] These techniques are described by Tzukerman, M. T., Esty, A., Santiso-Mere, D., Danielian, P., Parker, M. G., Stein, R. B., Pike, J. W. and McDonnel, D. P. (1994). Human estrogen receptor transactivational capacity was determined by both cellular and promoter context and mediated by two functionally distinct intramolecular regions (see Molecular Endocrinology, 8:21-30).

uteri = test: Rat Uterotrophic/Antiuterotrophic Bioassay (results headed 3-Day Ovariectomized Rat Model); type: in vivo, rat (Sprague-Dawley)
Description: Rat Uterotrophic/Antiuterotrophic Bioassay
Immature Sprague-Dawley rats (female, 18 days old) were tested in groups of six. […] On day 4 the animals were sacrificed by CO2 asphyxiation and their uteri were removed and stripped of excess lipid, any fluid removed and the wet weight determined. A small section of one horn was submitted for histology and the remainder used to isolate total RNA in order to evaluate complement component 3 gene expression.

ovariectomized rat = conditions: background, cited from earlier work
bone = conditions: background; cited from earlier work
uterus = conditions: background; cited from earlier work

| Estrogen Receptor Affinity (RBA) (estrogen receptor [1]) | % Activation with 1 nM 17β-estradiol (luciferase) (estrogen receptor [2]; 1 uM compound + 1 nM 17β-estradiol, 24 h (antagonism)) | activation at 1 µM (estrogen receptor [2]; CHO, 24 h) | SMILES | % Activation (Compound ± 1 nM 17β-estradiol) (alkaline phosphatase) (Ishikawa cells) | % Activation (alkaline phosphatase) (Ishikawa cells) | uterine wet weight, 100 μG plus 1 μG 17β-Estradiol (uteri; 100 μG compound + 1 μG 17β-estradiol, estradiol alone: Example 11 group 90.8, Examples 14/15 group 95.5 mg) | ability to spare bone (in words) (ovariectomized rat) | stimulation of uterine growth (in words) (ovariectomized rat; compared with Tamoxifen) | effect on the bone in humans (in words) (bone) | effect in the uterus (in words) (uterus) | uterine wet weight, 10 μG (uteri; 10 μG compound, controls: tamoxifen/raloxifene 42.7, Example 7 20.2, Example 12 31.4, Example 11 24.5, Examples 14/15 29.1 mg) | uterine wet weight, 100 μG (uteri; 100 μG compound, controls: tamoxifen/raloxifene 42.7, Example 7 20.2, Example 12 31.4, Example 11 24.5, Examples 14/15 29.1 mg) |
| --- | --- | --- | --- | --- | --- | --- | --- | --- | --- | --- | --- | --- |
| 80 | 12% | 8% | CCCCN(CCCC)C(=O)/C=C/c1ccc(Cn2c(-c3ccc(O)cc3)c(C)c3cc(O)ccc32)cc1 [Example 11, (E)-N,N-Dibutyl-3-{4-[5-hydroxy-2-(4-hydroxy-phenyl)-3-methyl-indol-1-ylmethyl]-phenyl}-acrylamide] | 11% | 6% | 81.0 mg | – | – | – | – | – | – |
| – | – | – | O=C(c1ccc(OCCN2CCCCC2)cc1)c1c(-c2ccc(O)cc2)sc2cc(O)ccc12 [raloxifene] | – | 5% | – | maintaining the ability to spare bone | stimulate uterine growth in the ovariectomized rat to a lesser extent than Tamoxifen | – | – | – | – |
| – | – | – | CC/C(=C(\c1ccccc1)c1ccc(OCCN(C)C)cc1)c1ccccc1 [tamoxifen] | 45% | 0% | – | – | – | estrogen agonist like effect on the bone | partial agonist in the uterus | 69.6 mg | 71.4 mg |
